{"source": "patent US20130053430A1", "about": "“MODULATION OF CETP EXPRESSION” (Isis Pharmaceuticals, Inc., priority 2010, published 2013)", "key": {"[1]": {"test_system": "human CETP mRNA", "assay": "Dose-dependent antisense inhibition of human CETP in SW872 liposarcoma cells (Example 3)", "assay_type": "cell-based", "conditions": "Lipofectin, ~16 hours (Example 3)", "method": "ISIS 17291 ([…], 6-8-6 MOE (SEQ ID NO: 115)), ISIS 17302 ([…], 6-8-6 MOE (SEQ ID NO: 116)), and ISIS 17305 ([…], 6-8-6 MOE (SEQ ID NO: 117), first disclosed in U.S. Ser. No. 11/031,827 (incorporated by reference herein), were also tested under the same conditions. Cells were plated at a density of 50,000 cells per well in a 24-well plate and transfected using Lipofectin reagent with 50 nM, 150 nM, and 300 nM concentrations of each antisense oligonucleotide. After approximately 16 hours, RNA was isolated from the cells and CETP mRNA levels were measured by quantitative real-time PCR. CETP mRNA levels were normalized to total RNA content, as measured by the house-keeping gene, GAPDH mRNA levels. Results are presented in Table 5 as percent inhibition of CETP, relative to untreated control cells."}, "[2]": {"assay": "Liver function, plasma ALT and AST (Example 8)", "assay_type": "in vivo", "conditions": "huCETP transgenic mice, Western diet; 25 mg/kg s.c. twice per week for 2 weeks", "from_the_text": "(§1) The mice were divided into two groups of 4-6 mice each."}, "[3]": {"conditions": "mouse, in vivo, sc, 25 mg/kg", "from_the_text": "The saline-injected group served as the control group to which oligonucleotide-treated groups were compared. […] This group served a negative control for the effects of the antisense oligonucleotides against CETP. The groups are further described in Table 27, and are designated letters A-F, by which they will be referred from henceforth."}, "[4]": {"test_system": "CETP activity", "assay": "CETP activity assay kit (Example 8)", "assay_type": "in vivo, human", "conditions": "huCETP transgenic mice, Western diet; 25 mg/kg s.c. twice per week for 2 weeks; relative to PBS control", "method": "as §1\nCETP activity levels were measured using a CETP activity assay kit (Roar Biomedical Inc., New York, N.Y.). […] The results are expressed as percent inhibition of CETP activity, relative to the PBS control."}, "[5]": {"test_system": "human CETP mRNA", "assay": "Dose-dependent antisense inhibition of human CETP in SW872 liposarcoma cells (Example 2)", "assay_type": "cell-based", "conditions": "Lipofectin, ~16 hours (Example 2)", "method": "Cells were plated at a density of 50,000 cells per well in a 24-well plate and transfected using Lipofectin reagent with 50 nM, 150 nM, and 300 nM concentrations of each antisense oligonucleotide. After approximately 16 hours, RNA was isolated from the cells and CETP mRNA levels were measured by quantitative real-time PCR. CETP mRNA levels were normalized to total RNA content, as measured by the house-keeping gene, GAPDH mRNA levels. Results are presented in Table 4 as percent inhibition of CETP, relative to untreated control cells."}, "[6]": {"test_system": "CETP mRNA", "assay": "Liver CETP mRNA in huCETP transgenic mice on Western diet (Example 8)", "assay_type": "in vivo, human", "conditions": "25 mg/kg s.c. twice per week for 2 weeks, relative to PBS control", "method": "Male transgenic mice were maintained on a 12-hour light/dark cycle and were fed ad libitum the Western diet (TD88137; 42% cal from fat, 0.2% cholesterol; Harlan Laboratories, Indianapolis, Ind.). Animals were acclimated for at least 7 days in the research facility before initiation of the experiment and were maintained on this diet throughout the study period. Antisense oligonucleotides (ASOs) were prepared in phosphate buffered saline (PBS) and sterilized by filtering through a 0.2 micron filter. Oligonucleotides were dissolved in 0.9% PBS for injection.\nas §1\nTwenty four hours after the final dose, the animals were sacrificed and liver tissue was isolated.\nLiver RNA was isolated for real-time PCR analysis of CETP. The primer probe set hCETP was used to measure CETP levels. […] The RNA expression levels were normalized to murine Cyclophilin. The results are expressed as percent inhibition of CETP mRNA, relative to the PBS control."}, "[7]": {"assay": "Plasma cholesterol and triglyceride levels (Example 8)", "assay_type": "in vivo", "conditions": "huCETP transgenic mice, Western diet", "method": "as §1\nPlasma cholesterol were extracted at week 6 by the method of Bligh and Dyer (Bligh, E. G. and Dyer, W. J. Can. J. Biochem. Physiol. 37: 911-917, 1959) and measured with an Olympus clinical analyzer (Hitachi Olympus AU400e, Melville, N.Y.). HDL and LDL cholesterol were individually measured by HPLC. Triglyceride levels were measured with the use of a commercially available triglyceride kit (DCL Triglyceride Reagent; Diagnostic Chemicals Ltd., Charlottetown, Canada). The results are presented in Table 41 and are expressed in mg/dL."}, "[8]": {"conditions": "25 mg/kg s.c. twice per week for 2 weeks"}}, "note": "e = 2'-O-(2-methoxyethyl) (MOE); d = 2'-deoxy (DNA)", "data": [{"substance": "ISIS 349517: 5-10-5 MOE gapmer CAGCACTTTAATGCCAGTGG (sugars from the 5' end e5 d10 e5, backbone and methylation of C not given here)", "values": [{"measurement": "percent inhibition of CETP", "setting": "[1]; 50 nM", "result": 76, "unit": "%"}, {"measurement": "percent inhibition of CETP", "setting": "[1]; 150 nM", "result": 91, "unit": "%"}, {"measurement": "percent inhibition of CETP", "setting": "[1]; 300 nM", "result": 93, "unit": "%"}, {"measurement": "Transaminase levels, ALT", "setting": "[2]", "result": 26, "unit": "IU/L"}, {"measurement": "Transaminase levels, AST", "setting": "[2]", "result": 38, "unit": "IU/L"}, {"measurement": "Organ weights, Kidney", "setting": "[3]", "result": 0.39}, {"measurement": "Organ weights, Liver", "setting": "[3]", "result": 1.51}, {"measurement": "Organ weights, Spleen", "setting": "[3]", "result": 0.09}, {"measurement": "Percent inhibition of CETP activity", "setting": "[4]", "result": 73, "unit": "%"}, {"measurement": "percent inhibition of CETP", "setting": "[5]; 50 nM", "result": 100, "unit": "%"}, {"measurement": "percent inhibition of CETP", "setting": "[5]; 150 nM", "result": 98, "unit": "%"}, {"measurement": "percent inhibition of CETP", "setting": "[5]; 300 nM", "result": 98, "unit": "%"}, {"measurement": "Percent inhibition of liver CETP mRNA expression", "setting": "[6]", "result": 84, "unit": "%"}, {"measurement": "HDL % at week 0", "setting": "[7]; [8]", "result": 39, "unit": "%"}, {"measurement": "HDL cholesterol", "setting": "[7]; [8]", "result": 155, "unit": "mg/dL"}, {"measurement": "LDL Cholesterol", "setting": "[7]; [8]", "result": 48, "unit": "mg/dL"}, {"measurement": "Total cholesterol", "setting": "[7]; [8]", "result": 212, "unit": "mg/dL"}, {"measurement": "Triglycerides", "setting": "[7]; [8]", "result": 58, "unit": "mg/dL"}, {"measurement": "increase in HDL levels compared to the PBS control", "setting": "[7]; 25 mg/kg s.c. twice per week, on week 3", "result": 30, "unit": "%"}]}]}
